Source: the supplement of paper PMC10981050

Tests used:
Assay in all cases: cell viability relative to vehicle control; higher = less cytotoxic
Settings in all cases: SRSF2 genotype: SRSF2 WT
[1] = tested on: MARIMO
Experimental: (§1)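 Isogenic SRSF2 WT and CRISPR SRSF2 P95 mutant clones of MOLM14, OCI-AML2 and MARIMO were exposed to ROCK inhibitors at 7 doses (0.037 to 29.9 µM) for 48 h. Viability was read by CellTiter-Glo luminescence and normalised to the vehicle control on each plate (%).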

[2] = tested on: MOLM14
Experimental: as §1

[3] = tested on: OCI-AML2
Experimental: as §1

O=C(NCc1cccc(O)c1)Nc1nc(-c2ccncc2)cs1 [RKI-1447]
cell viability [%]
Settings | 0.037 µM | 0.129 µM | 0.369 µM | 0.997 µM | 3.49 µM | 9.97 µM | 29.9 µM
[1] | 102 | 101 | 101 | 98.4 | 94.49 | 75.9 | 20.3
[2] | 97 | 80.3 | 70.7 | 66.31 | 60.68 | 33 | 1.24
[3] | 98.1 | 73.5 | 44.7 | 34.5 | 27.9 | 22.8 | 4.32
